# Results taken from US20040254125A1, “Anthelmintic composition” (priority 2001, published 2004).
# Key:
# Format in all cases: in vivo
# [1] = system: mites; test: Spot-on Test (Extermination Test on Mites) in dogs; settings: dogs naturally infected; spot-on to back of neck, 5 mg/kg of Reference Example 1 (10 g : 3.8 g fipronil per 100 ml); examined three days after administration
# Protocol: Compound (10 g) of Reference Example 1 and fipronil (3.8 g) were mixed. This mixture was dissolved in a mixed solvent (9:1) of benzyl alcohol and propylene carbonate so as to be a total volume of 100 ml, and 0.05% of BHT was further added to prepare a formulation for the spot-on test. Further, as a control, formulations were prepared by using each of the compound of Reference Example 1 solo and fipronil solo to carry out the test.
# The above-described formulation for spot-on test was dropped to the back part of the neck of each dog (two dogs in each test location) naturally infected with mites at a dose of 5 mg/kg of the compound in Reference Example 1. In each dog, infection with mites was examined three days after the dropwise administration.
# [2] = system: Toxocara canis; test: Oral Test in dogs naturally infected with Toxocara canis; settings: single oral dose in gelatine capsule (Reference Example 1 5 mg/kg, praziquantel 1.25 mg/kg), postmortem on 10th day
# Protocol: (§1) Compound (5 mg/kg) of Reference Example 1 and praziquantel (1.25 mg/kg) were encapsulated into gelatine to a predetermined amount to prepare a formulation for Oral Test. Incidentally, formulations were prepared as controls by using each of the compound of Reference Example 1 solo and fipronil solo to carry out the test.
# (§2) The formulation was administered orally once to dogs (two dogs in each test location) naturally infected with Dipylidium caninum and Toxocara canis. Incidentally, the infection with Dipylidium caninum was confirmed by the excretion of proglottid of Dipylidium caninum into faeces three days before administration of drugs. The infection with Toxocara canis was confirmed by the excretion of eggs of Toxocara canis into faeces immediately before administration of drugs. On the 10th day after the administration of drugs, the dogs were subjected to postmortem to count the number of surviving Dipylidium caninum and Toxocara canis.
# [3] = system: Dipylidium caninum; test: Oral Test in dogs naturally infected with Dipylidium caninum; settings: single oral dose in gelatine capsule (Reference Example 1 5 mg/kg, praziquantel 1.25 mg/kg), postmortem on 10th day
# Protocol: as §1, §2
Compound,treating infection with mites [1],exterminating Toxocara canis (number of surviving parasites at postmortem) [2],exterminating Dipylidium caninum (number of surviving parasites at postmortem) [3]
N#Cc1nn(-c2c(Cl)cc(C(F)(F)F)cc2Cl)c(N)c1[S+]([O-])C(F)(F)F (stereo not drawn) [fipronil],ineffective,,
"O=C(C1CCCCC1)N1CC(=O)N2CCc3ccccc3C2C1 (stereo not drawn) [praziquantels, praziquantel]",,ineffective,effective
13-[1-(4-methoxyacetylaminophenyl) cyclopentanecarbonyloxy]-5-hydroxy-milbemycin A4 [Reference Example 1],ineffective,effective,ineffective
